According to the supplement of paper PMC10307832:

Columns and labels:
Assay in all cases: relative viability (nuclei count vs DMSO), 5 days (fraction); higher = more cells survive
[1] = system: ABC-1
Method in brief: (§1)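 Lung cancer cell lines were pin-tool dosed in 1536-well plates on the day after seeding, with either a lone drug or a fixed anchor-drug dose plus five library-drug doses (not always all listed) in √10 steps. Nuclei were counted on 4× images after 5 days. Relative viability is the ratio of treated-well to vehicle-well nuclei counts, with each value a median of duplicate plates.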

[2] = system: CAL-12T
Method in brief: as §1

[3] = system: COR-L23
Method in brief: as §1

[4] = system: EMC-BAC-2
Method in brief: as §1

[5] = system: HARA
Method in brief: as §1

[6] = system: HCC-366
Method in brief: as §1

[7] = system: HOP-62
Method in brief: as §1

[8] = system: LK-2
Method in brief: as §1

[9] = system: NCI-H1437
Method in brief: as §1

[10] = system: NCI-H1563
Method in brief: as §1

[11] = system: NCI-H1650
Method in brief: as §1

[12] = system: NCI-H1651
Method in brief: as §1

[13] = system: NCI-H1734
Method in brief: as §1

[14] = system: NCI-H1755
Method in brief: as §1

[15] = system: NCI-H2347
Method in brief: as §1

[16] = system: NCI-H3122
Method in brief: as §1

[17] = system: NCI-H441
Method in brief: as §1

[18] = system: NCI-H596
Method in brief: as §1

[19] = system: NCI-H727
Method in brief: as §1

[20] = system: PC-3 [JPC-3]
Method in brief: as §1

[21] = system: RERF-LC-KJ
Method in brief: as §1

[22] = system: SK-LU-1
Method in brief: as §1

[23] = system: UMC-11
Method in brief: as §1

Cc1csc(=NC2CCCCC2)n1/N=C/c1ccc(O)c(O)c1O [MIM1] + CS(=O)(=O)N1CCN(Cc2cc3nc(-c4cccc5[nH]ncc45)nc(N4CCOCC4)c3s2)CC1 [Pictilisib] (partner 1 µM) was tested. Which relative viability ([1]; first compound 0.2 µM) did it give?
Its relative viability is 0.547.

What about the relative viability ([1]; first compound 0.6325 µM) of the same molecule?
Its relative viability is 0.852.

And the relative viability ([1]; first compound 2 µM)?
Its relative viability is 0.722.

And the relative viability ([1]; first compound 6.325 µM)?
Its relative viability is 0.286.

What about the relative viability ([1]; first compound 20 µM) of the same molecule?
The relative viability was 0.286.

And the relative viability ([2]; first compound 0.2 µM)?
Its relative viability is 0.394.

What about the relative viability ([2]; first compound 2 µM) of the same molecule?
The relative viability was 0.473.

And the relative viability ([2]; first compound 6.325 µM)?
Its relative viability is 0.453.

And the relative viability ([2]; first compound 20 µM)?
Its relative viability is 0.233.

What about the relative viability ([3]; first compound 0.2 µM) of the same molecule?
The relative viability was 0.692.

What about the relative viability ([3]; first compound 0.6325 µM) of the same molecule?
Its relative viability is 0.654.

And the relative viability ([3]; first compound 2 µM)?
Its relative viability is 0.844.

What about the relative viability ([3]; first compound 6.325 µM) of the same molecule?
The relative viability was 0.525.

What about the relative viability ([3]; first compound 20 µM) of the same molecule?
The relative viability was 0.217.

What about the relative viability ([4]; first compound 0.2 µM) of the same molecule?
Its relative viability is 0.538.

What about the relative viability ([4]; first compound 0.6325 µM) of the same molecule?
The relative viability was 0.479.

What about the relative viability ([4]; first compound 2 µM) of the same molecule?
Its relative viability is 0.542.

What about the relative viability ([4]; first compound 6.325 µM) of the same molecule?
The relative viability was 0.562.

And the relative viability ([4]; first compound 20 µM)?
Its relative viability is 0.238.

And the relative viability ([5]; first compound 0.2 µM)?
The relative viability was 0.333.

What about the relative viability ([5]; first compound 0.6325 µM) of the same molecule?
The relative viability was 0.328.

And the relative viability ([5]; first compound 2 µM)?
The relative viability was 0.476.

What about the relative viability ([5]; first compound 6.325 µM) of the same molecule?
Its relative viability is 0.307.

What about the relative viability ([5]; first compound 20 µM) of the same molecule?
The relative viability was 0.124.

What about the relative viability ([6]; first compound 0.2 µM) of the same molecule?
The relative viability was 0.166.

What about the relative viability ([6]; first compound 0.6325 µM) of the same molecule?
The relative viability was 0.153.

What about the relative viability ([6]; first compound 2 µM) of the same molecule?
The relative viability was 0.122.

What about the relative viability ([6]; first compound 6.325 µM) of the same molecule?
Its relative viability is 0.183.

What about the relative viability ([6]; first compound 20 µM) of the same molecule?
Its relative viability is 0.0561.

And the relative viability ([7]; first compound 0.2 µM)?
Its relative viability is 0.803.

And the relative viability ([7]; first compound 0.6325 µM)?
Its relative viability is 0.437.

And the relative viability ([7]; first compound 2 µM)?
Its relative viability is 0.724.

And the relative viability ([7]; first compound 6.325 µM)?
The relative viability was 0.642.

What about the relative viability ([7]; first compound 20 µM) of the same molecule?
The relative viability was 0.127.

And the relative viability ([8]; first compound 0.2 µM)?
Its relative viability is 0.581.

And the relative viability ([8]; first compound 0.6325 µM)?
Its relative viability is 0.534.

And the relative viability ([8]; first compound 6.325 µM)?
Its relative viability is 0.561.

What about the relative viability ([8]; first compound 20 µM) of the same molecule?
Its relative viability is 0.269.

And the relative viability ([9]; first compound 0.2 µM)?
Its relative viability is 0.482.

And the relative viability ([9]; first compound 0.6325 µM)?
Its relative viability is 0.382.

What about the relative viability ([9]; first compound 2 µM) of the same molecule?
Its relative viability is 0.516.

And the relative viability ([9]; first compound 6.325 µM)?
The relative viability was 0.269.

And the relative viability ([9]; first compound 20 µM)?
Its relative viability is 0.128.

And the relative viability ([10]; first compound 0.2 µM)?
Its relative viability is 0.628.

What about the relative viability ([10]; first compound 0.6325 µM) of the same molecule?
The relative viability was 0.672.

And the relative viability ([10]; first compound 2 µM)?
Its relative viability is 0.636.

And the relative viability ([10]; first compound 6.325 µM)?
The relative viability was 0.61.

And the relative viability ([10]; first compound 20 µM)?
The relative viability was 0.4.

What about the relative viability ([11]; first compound 0.2 µM) of the same molecule?
Its relative viability is 0.595.

And the relative viability ([11]; first compound 0.6325 µM)?
Its relative viability is 0.545.

What about the relative viability ([11]; first compound 2 µM) of the same molecule?
Its relative viability is 0.434.

And the relative viability ([11]; first compound 6.325 µM)?
Its relative viability is 0.176.

What about the relative viability ([11]; first compound 20 µM) of the same molecule?
Its relative viability is 0.167.

What about the relative viability ([12]; first compound 0.2 µM) of the same molecule?
Its relative viability is 0.646.

What about the relative viability ([12]; first compound 0.6325 µM) of the same molecule?
The relative viability was 0.646.

What about the relative viability ([12]; first compound 2 µM) of the same molecule?
The relative viability was 0.75.

And the relative viability ([12]; first compound 6.325 µM)?
The relative viability was 0.542.

And the relative viability ([12]; first compound 20 µM)?
Its relative viability is 0.298.

What about the relative viability ([13]; first compound 0.2 µM) of the same molecule?
Its relative viability is 0.501.

What about the relative viability ([13]; first compound 0.6325 µM) of the same molecule?
Its relative viability is 0.408.

And the relative viability ([13]; first compound 2 µM)?
The relative viability was 0.442.

What about the relative viability ([13]; first compound 6.325 µM) of the same molecule?
The relative viability was 0.351.

What about the relative viability ([13]; first compound 20 µM) of the same molecule?
Its relative viability is 0.266.

What about the relative viability ([14]; first compound 0.2 µM) of the same molecule?
Its relative viability is 0.465.

And the relative viability ([14]; first compound 0.6325 µM)?
Its relative viability is 0.372.

And the relative viability ([14]; first compound 2 µM)?
Its relative viability is 0.42.

What about the relative viability ([14]; first compound 6.325 µM) of the same molecule?
The relative viability was 0.37.

And the relative viability ([14]; first compound 20 µM)?
The relative viability was 0.179.

And the relative viability ([15]; first compound 0.2 µM)?
The relative viability was 0.885.

What about the relative viability ([15]; first compound 0.6325 µM) of the same molecule?
Its relative viability is 0.733.

What about the relative viability ([15]; first compound 2 µM) of the same molecule?
Its relative viability is 0.72.

What about the relative viability ([15]; first compound 6.325 µM) of the same molecule?
The relative viability was 0.619.

And the relative viability ([15]; first compound 20 µM)?
The relative viability was 0.359.

What about the relative viability ([16]; first compound 0.2 µM) of the same molecule?
Its relative viability is 0.644.

And the relative viability ([16]; first compound 0.6325 µM)?
Its relative viability is 0.529.

What about the relative viability ([16]; first compound 2 µM) of the same molecule?
The relative viability was 0.701.

And the relative viability ([16]; first compound 6.325 µM)?
Its relative viability is 0.578.

What about the relative viability ([16]; first compound 20 µM) of the same molecule?
Its relative viability is 0.394.

What about the relative viability ([17]; first compound 0.2 µM) of the same molecule?
The relative viability was 0.541.

What about the relative viability ([17]; first compound 0.6325 µM) of the same molecule?
Its relative viability is 0.468.

What about the relative viability ([17]; first compound 2 µM) of the same molecule?
The relative viability was 0.539.

What about the relative viability ([17]; first compound 6.325 µM) of the same molecule?
Its relative viability is 0.382.

What about the relative viability ([17]; first compound 20 µM) of the same molecule?
The relative viability was 0.147.

And the relative viability ([18]; first compound 0.2 µM)?
Its relative viability is 0.419.

And the relative viability ([18]; first compound 0.6325 µM)?
Its relative viability is 0.457.

What about the relative viability ([18]; first compound 2 µM) of the same molecule?
Its relative viability is 0.406.

And the relative viability ([18]; first compound 6.325 µM)?
Its relative viability is 0.352.

And the relative viability ([18]; first compound 20 µM)?
Its relative viability is 0.402.

What about the relative viability ([19]; first compound 0.2 µM) of the same molecule?
The relative viability was 0.415.

What about the relative viability ([19]; first compound 0.6325 µM) of the same molecule?
Its relative viability is 0.352.

What about the relative viability ([19]; first compound 2 µM) of the same molecule?
The relative viability was 0.35.

What about the relative viability ([19]; first compound 6.325 µM) of the same molecule?
The relative viability was 0.355.

What about the relative viability ([19]; first compound 20 µM) of the same molecule?
Its relative viability is 0.122.

And the relative viability ([20]; first compound 0.2 µM)?
Its relative viability is 0.759.

And the relative viability ([20]; first compound 0.6325 µM)?
Its relative viability is 0.763.

What about the relative viability ([20]; first compound 2 µM) of the same molecule?
The relative viability was 0.707.

And the relative viability ([20]; first compound 6.325 µM)?
The relative viability was 0.619.

And the relative viability ([20]; first compound 20 µM)?
Its relative viability is 0.459.

What about the relative viability ([21]; first compound 0.2 µM) of the same molecule?
The relative viability was 0.504.

What about the relative viability ([21]; first compound 0.6325 µM) of the same molecule?
The relative viability was 0.488.

What about the relative viability ([21]; first compound 2 µM) of the same molecule?
The relative viability was 0.484.

What about the relative viability ([21]; first compound 6.325 µM) of the same molecule?
The relative viability was 0.415.

What about the relative viability ([21]; first compound 20 µM) of the same molecule?
Its relative viability is 0.225.

What about the relative viability ([22]; first compound 0.2 µM) of the same molecule?
The relative viability was 0.636.

And the relative viability ([22]; first compound 0.6325 µM)?
Its relative viability is 0.594.

And the relative viability ([22]; first compound 2 µM)?
Its relative viability is 0.625.

What about the relative viability ([22]; first compound 6.325 µM) of the same molecule?
Its relative viability is 0.466.

And the relative viability ([22]; first compound 20 µM)?
Its relative viability is 0.354.

And the relative viability ([23]; first compound 0.2 µM)?
The relative viability was 0.753.

What about the relative viability ([23]; first compound 0.6325 µM) of the same molecule?
Its relative viability is 0.203.

What about the relative viability ([23]; first compound 2 µM) of the same molecule?
Its relative viability is 0.853.

And the relative viability ([23]; first compound 6.325 µM)?
Its relative viability is 0.687.

And the relative viability ([23]; first compound 20 µM)?
The relative viability was 0.17.
